From patent US20170321285A1, “NLRC5 AS A BIOMARKER FOR CANCER PATIENTS AND A TARGET FOR CANCER THERAPY” (THE TEXAS A&M UNIVERSITY SYSTEM, priority 2016, published 2017)

test system: cancer cell lines; assay: not given; details: 3 μM 5-azacytidine, various cancer cell lines, qPCR (FIG. 2A)

Molecule	expression of hla-b	expression of nlrc5
Nc1ncn([C@@H]2O[C@H](CO)[C@@H](O)[C@H]2O)c(=O)n1 [5-Azacitidine, 4-amino-1-β-D-ribofuranosyl-1,3,5-triazin-2(1H)-one]	upregulation	upregulation

test system: hla-b promoter; assay: hla-b promoter dual-luciferase reporter assay with nlrc5 mutant plasmids in HEK293T cells; format: cell-based, human; details: 100 ng mutant plasmid with HLA-B250 luciferase reporter, 48 h post-transfection (FIG. 3H)
From the text: FIGS. 3A-3J. Copy number loss and somatic mutations in nlrc5 are associated with reduced MHC class I gene expressions. FIG. 3A. Percentage of cancer patients who carry nlrc5 copy number (CN) loss among 20 TCGA tumor types. Based on GISTIC values, samples were classified into nlrc5 diploid group and CN loss group: GISTIC 0, diploid; −1 and −2, CN loss. FIG. 3B. Percentage of cancer patients who carry copy number (CN) loss of various MHC class I-related genes for 10 TCGA tumor types for which data are available (bladder, breast, colon, head/neck, lung adeno, lung squamous, ovarian, prostate, rectal and uterine cancer, top) and ovarian cancer (bottom). Statistical significance was determined by chi-square test. *: p<0.01, **: p<0.0001. FIG. 3C. Heatmap showing gene expression of nlrc5 and hla-b in nlrc5 diploid group (n=2028) or CN loss group (n=890) for 17 TCGA tumor types in which the nlrc5 promoter is not methylated. FIG. 3D. The box plots showing nlrc5 and MHC class I-related gene expression in the nlrc5 diploid group or CN loss group in breast cancer patients. FIG. 3E. Pie chart representing the percentage distribution of different types of mutations in nlrc5 in various cancer patients (n=7752). FIG. 3F. Mutation rate in 20 TCGA tumor types. FIG. 3G. Representation of nlrc5 indicating 13 mutations found in at least 2 different cancer patients. FIG. 3H. HEK293T cells were co-transfected with either empty control vector or the respective nlrc5 mutant plasmid with hla-b reporter plasmid and hla-b promoter activity was assessed by the dual-luciferase assay and normalized against Renilla […] activity. Data are representative of two independent experiments performed in duplicate and is plotted as fold induction with respect to the control vector. Error bar: ±sd. FIG. 3I. […] FIG. 3J. Box plots for the expression level of MHC class I-related genes normalized by the expression level of nlrc5 in 20 TCGA tumor types that are either nlrc5 wild-type or nlrc5 mutant. FIGS. 3D-3J. The horizontal line corresponds to the median, the box to the 25th-75th percentile and the lines to the confidence interval (5th-95th percentile).
The expression vector for human gfp-nlrc5 in pcDNA3.1 was previously described. The reporter gene construct used for MHC class I promoter activity (HLA-B250) was also previously described. Selected nlrc5 mutants were constructed using pcDNA3.1-gfp-nlrc5 by site-directed mutagenesis using the primers listed in Table 3. All the plasmids were confirmed by sequencing (Gene Technologies Laboratory).
HEK293T cells were cultured in DMEM supplemented with 10% FBS and penicillin/streptomycin (Life Technologies) at 37° C. with 5% CO2. Cells were transiently transfected using polyethylenimine at a DNA/polyethylenimine ratio of 1:3 in serum-free media. For luciferase assay, HEK293T cells were split at a density of 5×10^4 cells/well into 24-well plates 1 day prior to transfection. Cells were co-transfected using 100 ng of gfp-nlrc5 or 100 ng of the specified nlrc5 mutant plasmids along with 100 ng of HLA-B250 luciferase reporter construct. 20 ng promoterless Renilla luciferase vector (pRL-null; Promega) were included for normalization of transfection efficiency. Cells were harvested 48 h post-transfection, and cell lysates were analyzed using the Dual-Luciferase Reporter Assay System (Promega) according to the manufacturer's instructions.

Molecule	activity of the NLRC5 protein as compared to the wild-type NLRC5 protein (induction of hla-b promoter activity)
R1830C: NLRC5 protein mutant found in cancer patients, expressed from gfp-nlrc5 vector made by site-directed mutagenesis	reduces the activity
A737D: NLRC5 protein mutant found in cancer patients, expressed from gfp-nlrc5 vector made by site-directed mutagenesis	reduces the activity
A1512T: NLRC5 protein mutant found in cancer patients, expressed from gfp-nlrc5 vector made by site-directed mutagenesis	does not reduce or increases the activity
R550W: NLRC5 protein mutant found in cancer patients, expressed from gfp-nlrc5 vector made by site-directed mutagenesis	reduces the activity
Q1847*: NLRC5 nonsense mutant found in cancer patients, expressed from gfp-nlrc5 vector made by site-directed mutagenesis	reduces the activity
R262C: NLRC5 protein mutant found in cancer patients, expressed from gfp-nlrc5 vector made by site-directed mutagenesis	reduces the activity
D884N: NLRC5 protein mutant found in cancer patients, expressed from gfp-nlrc5 vector made by site-directed mutagenesis	does not reduce or increases the activity
R386W: NLRC5 protein mutant found in cancer patients, expressed from gfp-nlrc5 vector made by site-directed mutagenesis	does not reduce or increases the activity
S496F: NLRC5 protein mutant found in cancer patients, expressed from gfp-nlrc5 vector made by site-directed mutagenesis	does not reduce or increases the activity
L181P: NLRC5 protein mutant found in cancer patients, expressed from gfp-nlrc5 vector made by site-directed mutagenesis	reduces the activity
T1173M: NLRC5 protein mutant found in cancer patients, expressed from gfp-nlrc5 vector made by site-directed mutagenesis	does not reduce or increases the activity
R574H: NLRC5 protein mutant found in cancer patients, expressed from gfp-nlrc5 vector made by site-directed mutagenesis	does not reduce or increases the activity
